Results on 18 compounds are retold here after US20260327214A1, “1,3,4-OXADIAZOLE DERIVATIVE COMPOUNDS AS HISTONE DEACETYLASE 6 INHIBITOR, AND USES THEREOF” (CHONG KUN DANG PHARMACEUTICAL CORP., priority 2022, published 2026).

The target in one test is T1, human recombinant HDAC1 (Homo sapiens, UniProt Q13547).
T1 construct: purchased Enzo Life Science BML-SE456
Nature of the test: HDAC1 enzyme activity inhibition test (HDAC Fluorometric Drug Discovery Kit). In kind it is biochemical. The settings on record: 30° C., 60 minutes, 10 μM substrate. In outline:
(§1)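 IC50 derived from fluorescence (Ex 360, Em 460) following 30 min development with Developer II. Each reaction held 0.3 μg human recombinant HDAC1 or HDAC6, 10 μM Fluor de Lys SIRT1 substrate and 5-fold serially diluted compound, incubated 60 min at 30 °C.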

The target of the next test is T2, human recombinant HDAC6 (Homo sapiens, UniProt Q9UBN7).
T2 construct: purchased Calbiochem 382180
T2 sequence (Q9UBN7 1-1215): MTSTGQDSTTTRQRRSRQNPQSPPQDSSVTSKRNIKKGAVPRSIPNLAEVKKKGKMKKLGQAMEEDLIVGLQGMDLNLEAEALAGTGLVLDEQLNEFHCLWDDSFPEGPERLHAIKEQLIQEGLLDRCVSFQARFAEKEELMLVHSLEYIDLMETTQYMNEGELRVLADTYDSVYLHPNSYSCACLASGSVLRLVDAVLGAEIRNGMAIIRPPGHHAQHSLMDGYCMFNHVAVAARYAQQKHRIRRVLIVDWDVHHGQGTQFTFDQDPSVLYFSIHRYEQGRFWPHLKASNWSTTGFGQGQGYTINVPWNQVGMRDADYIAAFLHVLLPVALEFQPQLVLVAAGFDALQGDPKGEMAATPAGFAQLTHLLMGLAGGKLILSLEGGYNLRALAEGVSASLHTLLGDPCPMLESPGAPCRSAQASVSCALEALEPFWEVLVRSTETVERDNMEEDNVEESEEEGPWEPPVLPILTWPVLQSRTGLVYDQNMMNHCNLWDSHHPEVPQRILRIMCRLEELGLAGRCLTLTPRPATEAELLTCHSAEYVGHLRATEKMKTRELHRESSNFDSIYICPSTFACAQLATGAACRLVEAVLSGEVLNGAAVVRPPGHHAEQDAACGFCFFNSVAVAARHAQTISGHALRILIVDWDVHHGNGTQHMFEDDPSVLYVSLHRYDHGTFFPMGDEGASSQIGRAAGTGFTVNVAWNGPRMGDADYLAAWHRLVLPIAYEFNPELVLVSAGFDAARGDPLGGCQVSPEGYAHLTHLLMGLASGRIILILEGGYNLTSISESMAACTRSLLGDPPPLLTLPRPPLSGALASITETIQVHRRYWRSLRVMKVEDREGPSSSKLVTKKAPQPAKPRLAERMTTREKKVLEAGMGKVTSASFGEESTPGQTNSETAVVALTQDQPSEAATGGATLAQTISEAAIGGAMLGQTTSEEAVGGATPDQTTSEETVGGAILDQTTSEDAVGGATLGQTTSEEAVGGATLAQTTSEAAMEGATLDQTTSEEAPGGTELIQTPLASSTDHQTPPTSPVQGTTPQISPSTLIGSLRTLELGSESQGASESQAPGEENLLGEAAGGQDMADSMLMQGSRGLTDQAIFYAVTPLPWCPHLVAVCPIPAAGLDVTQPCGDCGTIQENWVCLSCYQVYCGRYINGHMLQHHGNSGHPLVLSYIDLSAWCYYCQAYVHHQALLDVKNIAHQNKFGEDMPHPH
As to the kind of experiment: HDAC6 enzyme activity inhibition test (HDAC Fluorometric Drug Discovery Kit). In kind it is biochemical. Conditions: for HDAC6 selectivity (fold): HDAC6 over HDAC1; for IC50: human recombinant HDAC6, same protocol as HDAC1. The procedure, abridged: as §1

Some results are limits rather than exact numbers.

As usually defined, the IC50 is the concentration that inhibits the measured activity by half.

T1 sequence (Q13547 whole entry): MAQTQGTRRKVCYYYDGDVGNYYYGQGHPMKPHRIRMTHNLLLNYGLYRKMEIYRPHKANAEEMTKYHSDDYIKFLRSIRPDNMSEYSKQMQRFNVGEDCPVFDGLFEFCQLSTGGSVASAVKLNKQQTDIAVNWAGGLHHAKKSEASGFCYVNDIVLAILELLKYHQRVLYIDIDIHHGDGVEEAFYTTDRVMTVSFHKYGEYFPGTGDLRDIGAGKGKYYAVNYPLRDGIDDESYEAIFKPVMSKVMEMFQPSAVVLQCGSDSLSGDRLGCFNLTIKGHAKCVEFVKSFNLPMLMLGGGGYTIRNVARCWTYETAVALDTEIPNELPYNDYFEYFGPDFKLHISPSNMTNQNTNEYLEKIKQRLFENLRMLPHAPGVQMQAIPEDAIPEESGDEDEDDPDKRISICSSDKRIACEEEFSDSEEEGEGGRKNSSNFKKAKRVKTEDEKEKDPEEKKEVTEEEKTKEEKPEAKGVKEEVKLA

Consider `CC(C)N1CCC(c2cc(-c3nn(Cc4ccc(-c5nnc(C(F)F)o5)cn4)c(=S)o3)ccc2F)CC1` [Compound 116, 3-[[5-[5-(difluoromethyl)-1,3,4-oxadiazol-2-yl]-2-pyridyl]methyl]-5-[4-fluoro-3-(1-isopropyl-4-piperidyl)phenyl]-1,3,4-oxadiazol-2-thione], for which, on human recombinant HDAC1, the IC50 is greater than 50000 nM. Moreover, at human recombinant HDAC6, the “HDAC6 selectivity (fold)” value is given as 429 fold and the concentration for half-maximal inhibition (IC50) turned out to be 116 nM.
`CC(=O)N1CC(N2CCC(c3cccc(-c4nn(Cc5ccc(-c6nnc(C(F)F)o6)cn5)c(=O)o4)c3F)CC2)C1` [Compound 28, 5-[3-[1-(1-acetylazetidine-3-yl)-4-piperidyl]-2-fluoro-phenyl]-3-[[5-[5-(difluoromethyl)-1,3,4-oxadiazol-2-yl]-2-pyridyl]methyl]-1,3,4-oxadiazol-2-one]: the IC50 on human recombinant HDAC1 was greater than 50000 nM. Also, on human recombinant HDAC6, the “HDAC6 selectivity (fold)” value is given as 626 fold and the 50% inhibitory concentration (IC50) turned out to be 79.9 nM.
As to `O=c1sc(-c2ccccc2)nn1Cc1ccc(-c2nnc(C(F)F)o2)cn1` [Compound 43, 3-[[5-[5-(difluoromethyl)-1,3,4-oxadiazol-2-yl]-2-pyridyl]methyl]-5-phenyl-1,3,4-thiadiazol-2-one], on human recombinant HDAC1, the IC50 is greater than 50000 nM. Moreover, on human recombinant HDAC6, the “HDAC6 selectivity (fold)” value was 359 fold and the IC50 was 139 nM.
On the same counts, the results for `O=c1oc(-c2ccc(N3CCNCC3)cc2)nn1Cc1ccc(-c2nnc(C(F)F)o2)cn1` [Compound 20, 3-[[5-[5-(difluoromethyl)-1,3,4-oxadiazol-2-yl]-2-pyridyl]methyl]-5-(4-piperazin-1-ylphenyl)-1,3,4-oxadiazol-2-one] are greater than 50000 nM, 653 fold and 76.6 nM.
In the same order, the values of `FC(F)c1nnc(-c2ccc(Cn3nc(-c4ccc(CN5CC[C@@H](F)C5)cc4)oc3=S)nc2)o1` [Compound 97, 3-[[5-[5-(difluoromethyl)-1,3,4-oxadiazol-2-yl]-2-pyridyl]methyl]-5-[4-[[(3R)-3-fluoropyrrolidin-1-yl]methyl]phenyl]-1,3,4-oxadiazol-2-thione] are greater than 50000 nM, 862 fold and 58.1 nM.
On to `O=c1oc(-c2cccc(N3CCN(C4COC4)CC3)n2)nn1Cc1ccc(-c2nnc(C(F)F)o2)cn1` [Compound 7, 3-[[5-[5-(difluoromethyl)-1,3,4-oxadiazol-2-yl]-2-pyridyl]methyl]-5-[6-[4-(oxetane-3-yl)piperazin-1-yl]-2-pyridyl]-1,3,4-oxadiazol-2-one], for which the IC50 at human recombinant HDAC1 was greater than 50000 nM. Moreover, at human recombinant HDAC6, the “HDAC6 selectivity (fold)” value is recorded as 600 fold and the half-inhibitory concentration (IC50) is 83.3 nM.
In the same order, the values of `CN1CCN(c2ccc(-c3nn(Cc4ccc(-c5nnc(C(F)F)o5)cn4)c(=O)o3)cc2)CC1` [Compound 21, 3-[[5-[5-(difluoromethyl)-1,3,4-oxadiazol-2-yl]-2-pyridyl]methyl]-5-[4-(4-methylpiperazin-1-yl)phenyl]-1,3,4-oxadiazol-2-one] are greater than 50000 nM, 446 fold and 112 nM.
Take `FC(F)c1nnc(-c2ccc(Cn3nc(-c4ccc(CN5CC[C@H](F)C5)cc4)oc3=S)nc2)o1` [Compound 98, 3-[[5-[5-(difluoromethyl)-1,3,4-oxadiazol-2-yl]-2-pyridyl]methyl]-5-[4-[[(3S)-3-fluoropyrrolidin-1-yl]methyl]phenyl]-1,3,4-oxadiazol-2-thione]: the concentration for half-maximal inhibition (IC50) on human recombinant HDAC1 was greater than 50000 nM. Besides, at human recombinant HDAC6, the “HDAC6 selectivity (fold)” value amounted to 552 fold and the 50% inhibitory concentration (IC50) worked out at 90.6 nM.
As to `Fc1cc(-c2nnc(C(F)F)o2)cnc1Cn1nc(-c2cccc(CN3CCCCC3)c2)oc1=S` [Compound 119, 3-[[5-[5-(difluoromethyl)-1,3,4-oxadiazol-2-yl]-3-fluoro-2-pyridyl]methyl]-5-[3-(1-piperidylmethyl)phenyl]-1,3,4-oxadiazol-2-thione], the 50% inhibitory concentration (IC50) on human recombinant HDAC1 is greater than 50000 nM. In addition, at human recombinant HDAC6, the “HDAC6 selectivity (fold)” value worked out at 590 fold and the half-inhibitory concentration (IC50) was found to be 84.8 nM.
In the case of `O=c1oc(-c2ccc3[nH]ccc3c2)nn1Cc1ccc(-c2nnc(C(F)F)o2)cn1` [Compound 3, 3-[[5-[5-(difluoromethyl)-1,3,4-oxadiazol-2-yl]-2-pyridyl]methyl]-5-(1H-indol-5-yl)-1,3,4-oxadiazol-2-one], the 50% inhibitory concentration (IC50) at human recombinant HDAC1 is greater than 50000 nM. Moreover, at human recombinant HDAC6, the “HDAC6 selectivity (fold)” value is 3497 fold and the IC50 was determined as 14.3 nM.
With `CN1CCC(c2cccc(-c3nn(Cc4ccc(-c5nnc(C(F)F)o5)cn4)c(=O)s3)c2F)CC1` [Compound 41, 3-[[5-[5-(difluoromethyl)-1,3,4-oxadiazol-2-yl]-2-pyridyl]methyl]-5-[2-fluoro-3-(1-methyl-4-piperidyl)phenyl]-1,3,4-thiadiazol-2-one], the IC50 on human recombinant HDAC1 is greater than 50000 nM. For the same compound, on human recombinant HDAC6, the “HDAC6 selectivity (fold)” value worked out at 909 fold and the concentration for half-maximal inhibition (IC50) amounted to 55 nM.
On the same counts, the results for `O=c1oc(-c2ccc(CN3CCCCC3)cc2)nn1Cc1ccc(-c2nnc(C(F)F)o2)cn1` [Compound 133, 3-[[5-[5-(difluoromethyl)-1,3,4-oxadiazol-2-yl]-2-pyridyl]methyl]-5-[4-(1-piperidylmethyl)phenyl]-1,3,4-oxadiazol-2-one] are greater than 50000 nM, 442 fold and 113 nM.
On to `FC(F)c1nnc(-c2ccc(Cn3nc(-c4cccc(CN5CC[C@@H](F)C5)c4)oc3=S)nc2)o1` [Compound 89, 3-[[5-[5-(difluoromethyl)-1,3,4-oxadiazol-2-yl]-2-pyridyl]methyl]-5-[3-[[(3R)-3-fluoropyrrolidin-1-yl]methyl]phenyl]-1,3,4-oxadiazol-2-thione], for which the IC50 on human recombinant HDAC1 was greater than 50000 nM. In addition, on human recombinant HDAC6, the “HDAC6 selectivity (fold)” value came to 1027 fold and the half-maximal inhibitory concentration (IC50) came to 48.7 nM.
With `FC(F)c1nnc(-c2ccc(Cn3nc(-c4ccccc4)oc3=S)nc2)o1` [Compound 45, 3-((5-(5-(difluoromethyl)-1,3,4-oxadiazol-2-yl)pyridin-2-yl)methyl)-5-phenyl-1,3,4-oxadiazol-2(3H)-thione], the IC50 on human recombinant HDAC1 is greater than 50000 nM; at human recombinant HDAC6 it was 92 nM. Moreover, the “HDAC6 selectivity (fold)” value at human recombinant HDAC6 is recorded as 543 fold.
In the same order, the values of `Cc1nc(-c2nn(Cc3ncc(-c4nnc(C(F)F)o4)cc3F)c(=S)o2)cs1` [Compound 60, 3-[[5-[5-(difluoromethyl)-1,3,4-oxadiazol-2-yl]-3-fluoro-2-pyridyl]methyl]-5-(2-methylthiazol-4-yl)-1,3,4-oxadiazol-2-thione] are greater than 50000 nM, 81.4 nM and 614 fold.
With `Fc1c(-c2nn(Cc3ccc(-c4nnc(C(F)F)o4)cn3)c(=S)o2)cccc1C1CCN(C2CCCC2)CC1` [Compound 82, 5-[3-(1-cyclopentyl-4-piperidyl)-2-fluoro-phenyl]-3-[[5-[5-(difluoromethyl)-1,3,4-oxadiazol-2-yl]-2-pyridyl]methyl]-1,3,4-oxadiazol-2-thione], the IC50 on human recombinant HDAC1 was greater than 50000 nM. Besides, at human recombinant HDAC6, the “HDAC6 selectivity (fold)” value is reported as 453 fold and the IC50 amounted to 110 nM.
Take `FC(F)c1nnc(-c2ccc(Cn3nc(-c4ccnc(N5CCN(C6CCCC6)CC5)c4)oc3=S)nc2)o1` [Compound 106, 5-[2-(4-cyclopentylpiperazin-1-yl)-4-pyridyl]-3-[[5-[5-(difluoromethyl)-1,3,4-oxadiazol-2-yl]-2-pyridyl]methyl]-1,3,4-oxadiazol-2-thione]: on human recombinant HDAC1, the half-inhibitory concentration (IC50) is greater than 50000 nM. Also, at human recombinant HDAC6, the “HDAC6 selectivity (fold)” value amounted to 639 fold and the 50% inhibitory concentration (IC50) is 78.2 nM.
With `CN1CCN(c2nccc(-c3nn(Cc4ccc(-c5nnc(C(F)F)o5)cn4)c(=S)o3)n2)CC1` [Compound 126, 3-[[5-[5-(difluoromethyl)-1,3,4-oxadiazol-2-yl]-2-pyridyl]methyl]-5-[2-(4-methylpiperazin-1-yl)pyrimidin-4-yl]-1,3,4-oxadiazol-2-thione], at human recombinant HDAC1, the IC50 was greater than 50000 nM. Moreover, on human recombinant HDAC6, the “HDAC6 selectivity (fold)” value came out at 977 fold and the 50% inhibitory concentration (IC50) was found to be 51.2 nM.
